“Also recorded” adds a separate entry of the source.
Key:
[1] = test system: nitric oxide (NO) generation; assay: nitric oxide (NO) generation by Thioglycollate induced macrophages, Griess reagent; format: cell-based, mouse
[2] = test system: ROI production by granulocytes; assay: ROI production by granulocytes, luminol-enhanced chemiluminescence response to zymosan; format: cell-based, mouse (C57BL/6)
Description: Thioglycollate-elicited granulocytes were harvested from C57BL/6 mice by sterile lavage with PBS 18 hrs. after intraperitoneal injection with 1.5 ml thioglycollate medium (1.5 ml in 3% solution). The cells were washed and resuspended at 5×10^5 cells/ml in Hanks' buffered salt solution without phenol red, and distributed at 0.5 ml/tube into luminometer plastic tubes. […] The tube was inserted into luminometer (Biolumate LB 95 oot Berhold Wildbad Germany) which had been prewarmed to 37° C. The granulocyte luminol-enhanced chemiluminescence response to zymosan was considered as the positive control.

TNFα = conditions: cited from earlier work
[3] = test system: collagen induced arthritis (CIA); assay: acute CIA model, oral feeding of CBD; format: in vivo, mouse; conditions: 10 days
Description: The drug was administered by oral gavage. Control mice were fed vehicle (olive oil) along, as described in Materials and Methods. Results are expressed as a mean+/−SEM.
The doses used were 10 mg/kag, 25 mg/kg and 50 mg/kg (n=6 per group), corresponding to 2, 5, and 10 mg/kg i.p. respectively. Control mice were fed olive oil (n=6).

chronic CIA [4] = assay: chronic CIA, oral feeding of CBD; format: in vivo, mouse; conditions: 25 mg/kg oral daily
Description: Controls were fed vehicle (olive oil).
(§1) For the chronic experiments, 6 weeks old mice were immunized with mouse CII (100 μg CII i.d.=intradermal). From day 30 after immunization onwards, the mice developed a chronic relapsing arthritis, which was monitored for 5 weeks, in the same way as described above.
(§2) For the chronic experiment with mouse CII, mice were treated from the first symptoms of arthritis every other day, for 5 weeks. […] Again, mice injected with Vehicle alone served as controls (n=7). For the oral route, the treatment was administered daily at a dose of 25 mg/kg (n=6) and control mice were fed olive oil (n=6).

EAE = assay: experimental autoimmune encephalomyelitis (EAE); format: in vivo, mouse (SJL/J)
IL-1 = conditions: cited from earlier work
TNFα release = assay: spontaneous TNF release by murine synovial cells from arthritic mice; format: cell-based, mouse (DBA/1); conditions: for O.D. (cytotoxicity assay for TNF) / TNF: supernatants after 24 h
Description: DBA/1 mice which had been immunized with bovine CII in CFA, to induce CIA, as discussed above, were sacrificed at day 10 of arthritis and the knee joints were removed. Synovial cell cultures were performed as previously described. Briefly, synovial membranes were excised under a dissecting microscope and digested with collagenase A (1 mg/ml) (Boehringer-Mannheim) and DNAase type IV (0.15 mg/ml) (Sigma, Dorset, UK) at 37° C. for 20 minutes, in. the presence of polymyxin B (33 μg/ml) (Sigma). […] Supernatants were collected after 24 h. and stored at −20° C. until measured for cytokines.
Well cytotoxicity assay was used.

[5] = test system: collagen induced arthritis (CIA); assay: histological analysis of hind paw joints in CIA; format: in vivo, mouse; conditions: for joints completely protected: hind paws, day 10, control: no normal joints
Description: The hind paws were assessed as normal, mildly affected or severely destroyed.
Hind paws and knee joints were removed post mortem on the tenth day of arthritis, fixed in formalin and decalcified in 5% EDTA. Paws and knees were then embedded in paraffin, sectioned and stained with haematoxylin and eosin. Arthritic changes in the ankle, the metatarsophalangeal joints, the proximal interphalangeal and the distal interphalangeal joints were scored blindly as mild (mild synovial hyperplasia), moderate (pannus formulation and erosions limited to the cartilage-pannus junction), or severe (=extended bone and cartilage erosions with loss of joint architecture).

chronic CIA [6] = assay: chronic CIA model (mouse CII), CBD i.p.; format: in vivo; conditions: 5 weeks
Description: Results are expressed as a mean of 6 mice. The AUC for the control group is 38.4, and for the 5 mg/kg group 28.9.
as §1, §2

[7] = LPS 1 μg/ml + IFNγ 10 U/ml, CBD 2 μg/ml
[8] = LPS 1 μg/ml + IFNγ 10 U/ml, CBD 4 (μg/ml)
[9] = LPS 1 μg/ml + IFNγ 10 U/ml, CBD 6 (μg/ml)
[10] = LPS 1 μg/ml + IFNγ 10 U/ml, CBD 8 (μg/ml)

C=C(C)[C@@H]1CCC(C)=C[C@H]1c1c(O)cc(CCCCC)cc1O [CBD, Cannabidiol]
% INHIBITION of NO, 24 h [1, 7]: 14% | NO, 24 h [1, 7]: 12 nM | NO, 48 h ([1]; LPS 1 μg/ml + IFNγ 10 U/ml, CBD 2 (μg/ml)): 25.4 nM | % INHIBITION of NO, 24 h [1, 8]: 51% | NO, 24 h [1, 8]: 6.9 nM | NO, 48 h [1, 8]: 21.3 nM | % INHIBITION of NO, 24 h [1, 9]: 61% | NO, 24 h [1, 9]: 5.5 nM | NO, 48 h [1, 9]: 18.1 nM | % INHIBITION of NO, 24 h [1, 10]: 99% | NO, 24 h [1, 10]: 0.2 nM | % INHIBITION of NO, 48 h [1, 10]: 85% | NO, 48 h [1, 10]: 3.1 nM | % INHIBITION of NO, 24 h ([1]; LPS 1 μg/ml, CBD 2 (μg/ml)): 32% | NO, 24 h ([1]; LPS 1 μg/ml, CBD 2 (μg/ml)): 3.7 nM | % INHIBITION of NO, 48 h ([1]; LPS 1 μg/ml, CBD 2 (μg/ml)): 9% | NO, 48 h ([1]; LPS 1 μg/ml, CBD 2 (μg/ml)): 6.7 nM | % INHIBITION of NO, 24 h ([1]; LPS 1 μg/ml, CBD 4 (μg/ml)): 90% | NO, 24 h ([1]; LPS 1 μg/ml, CBD 4 (μg/ml)): 0.5 nM | % INHIBITION of NO, 48 h ([1]; LPS 1 μg/ml, CBD 4 (μg/ml)): 37% | NO, 48 h ([1]; LPS 1 μg/ml, CBD 4 (μg/ml)): 4.6 nM | % INHIBITION of NO, 24 h ([1]; LPS 1 μg/ml, CBD 6 (μg/ml)): 99% | NO, 24 h ([1]; LPS 1 μg/ml, CBD 6 (μg/ml)): 0.1 nM | % INHIBITION of NO, 48 h ([1]; LPS 1 μg/ml, CBD 6 (μg/ml)): 71% | NO, 48 h ([1]; LPS 1 μg/ml, CBD 6 (μg/ml)): 2.1 nM | % INHIBITION of NO, 24 h ([1]; LPS 1 μg/ml, CBD 8 (μg/ml)): 99% | NO, 24 h ([1]; LPS 1 μg/ml, CBD 8 (μg/ml)): 0.1 nM | % INHIBITION of NO, 48 h ([1]; LPS 1 μg/ml, CBD 8 (μg/ml)): 95% | NO, 48 h ([1]; LPS 1 μg/ml, CBD 8 (μg/ml)): 0.4 nM | effect on nitric oxide production (in words) ([1]; higher concentrations of CBD): inhibit nitric oxide production | effect on nitric oxide production (in words) ([1]; low concentrations of CBD): activate nitric oxide production | Chemiluminescence computer peak ([2]; Zymozan + CBD 5 μg/ml (1 h)): 157 | Chemiluminescence computer peak ([2]; Zymozan + CBD 6 μg/ml (0 h)): 1024 | Chemiluminescence computer peak ([2]; Zymozan + CBD 6 μg/ml (2 h)): 235 | TNFα production (TNFα): decreased | suppression of arthritis (in words) ([3]; 25 mg/kg daily oral gavage): significantly better than the control group; also recorded: optimal dose | suppression of arthritis (in words) ([3]; daily oral gavage after onset of arthritis): adequate suppression of the arthritis | progression of chronic CIA (in words) (chronic CIA [4]): suppression of the progression of chronic CIA | area under the curve of arthritis score (chronic CIA [4]; controls 72.3): 49.7 | suppression of EAE (in words) (EAE; 10 mg/kg): markedly suppresses EAE | Duration of EAE (EAE; CBD 10 mg/kg i.p. once a day for 14 days): 2.16 days | Incidence of EAE (EAE; CBD 10 mg/kg i.p. once a day for 14 days, 6 SJL/J mice): 2/6 | Mean maximum score (EAE) (EAE; CBD 10 mg/kg i.p. once a day for 14 days, six point scale 0-6): 1 | IL-1 production (IL-1): decreased | O.D. (cytotoxicity assay for TNF) (TNFα release; CBD 1 μg/ml): 0.190 ± 0.003 | TNF (TNFα release; CBD 1 μg/ml): >1000 pg/mL | O.D. (cytotoxicity assay for TNF) (TNFα release; CBD 2.5 μg/ml): 0.193 ± 0.004 | TNF (TNFα release; CBD 2.5 μg/ml): >1000 pg/mL | O.D. (cytotoxicity assay for TNF) (TNFα release; CBD 5 μg/ml): 0.422 ± 0.251 | TNF (TNFα release; CBD 5 μg/ml): 100 pg/mL | O.D. (cytotoxicity assay for TNF) (TNFα release; CBD 10 μg/ml): 0.922 ± 0.103 | TNF (TNFα release; CBD 10 μg/ml): 2 pg/mL | TNF (TNFα release; CBD 20 μg/ml): <0.01 pg/mL | O.D. (cytotoxicity assay for TNF) (TNFα release; CBD 50 μg/ml): 1.163 ± 0.119 | TNF (TNFα release; CBD 50 μg/ml): <0.01 pg/mL | spontaneous TNF release (in words) (TNFα release; CBD added to in vitro cultures): dose-dependent suppression of TNF release | joints moderately or severely affected ([5]; 5 mg/kg CBD, control mice 69%): 42% | joints completely protected ([5]; 5 mg/kg CBD): 33% | joints completely protected ([5]; 10 mg/kg CBD): 11% | suppression of chronic arthritis (in words) (chronic CIA [6]; 5 mg/kg i.p.): optimal in suppressing the arthritis | area under the curve (AUC) of arthritis score (chronic CIA [6]; 5 mg/kg i.p., control group 38.4): 28.9 | suppression of chronic arthritis (in words) (chronic CIA [6]; 10 mg/kg i.p.): less effective than 5 mg/kg
